# Results taken from patent US10183914B2 (BAYER CROPSCIENCE AKTIENGESELLSCHAFT, priority 2014, dated 2019).
# What was measured:
# [1] = logp (HCOOH), physicochemical characterization
# [2] = system: Zea mays; assay: Pre-emergence herbicidal effect and crop plant compatibility; assay type: in vivo; settings: 3 weeks
# Source text: (§1) Seeds of monocotyledonous and dicotyledonous weed plants and crop plants are laid out in wood-fiber pots in sandy loam and covered with soil. The compounds of the invention, formulated in the form of wettable powders (WP) or as emulsion concentrates (EC), are then applied to the surface of the covering soil as aqueous suspension or emulsion at a water application rate equating to 600 to 800 L/ha with addition of 0.2% wetting agent.
# (§2) After the treatment, the pots are placed in a greenhouse and kept under good growth conditions for the trial plants. The damage to the trial plants is scored visually after a trial duration of 3 weeks by comparison with untreated controls (herbicidal activity in percent (%): 100% efficacy=the plants have died, 0% efficacy=like control plants).
# [3] = system: Amaranthus retroflexus; assay: Pre-emergence herbicidal effect; assay type: in vivo; settings: 3 weeks
# Source text: as §1, §2
# [4] = system: Setaria viridis; assay: Pre-emergence herbicidal effect; assay type: in vivo; settings: 3 weeks
# Source text: as §1, §2
# [5] = system: Stellaria media; assay: Pre-emergence herbicidal effect; assay type: in vivo; settings: 3 weeks
# Source text: as §1, §2
# [6] = system: Veronica persica; assay: Pre-emergence herbicidal effect; assay type: in vivo; settings: 3 weeks
# Source text: as §1, §2
# [7] = system: Viola tricolor; assay: Pre-emergence herbicidal effect; assay type: in vivo; settings: 3 weeks
# Source text: as §1, §2
# [8] = system: Triticum aestivum (spring); assay: Pre-emergence herbicidal effect and crop plant compatibility; assay type: in vivo; settings: 3 weeks
# Source text: as §1, §2
# [9] = system: Matricaria inodora; assay: Pre-emergence herbicidal effect; assay type: in vivo; settings: 3 weeks
# Source text: as §1, §2
# [10] = system: Polygonum convolvulus; assay: Pre-emergence herbicidal effect; assay type: in vivo; settings: 1280 g/ha, 3 weeks
# Source text: as §1, §2
# [11] = system: Oryza sativa; assay: Pre-emergence herbicidal effect and crop plant compatibility; assay type: in vivo; settings: 3 weeks
# Source text: as §1, §2
# [12] = system: Echinochloa crus-galli; assay: Pre-emergence herbicidal effect; assay type: in vivo; settings: 320 g/ha, 3 weeks
# Source text: as §1, §2
smiles,measurement,setting,value
COc1ccc2c(c1)OC(C)(C)CC2Nc1ncc(C(C)=O)c(C)n1 (racemic) [1.96],logp (HCOOH),[1],"solid; m.p.: 183.5° C.; logp (HCOOH): 3.12; 1H-NMR (CDCl3, 400 MHZ, δ in ppm):"
CC1CCC(Nc2ncc3c(n2)CCCC3=O)c2ccccc21 (racemic) [2.111],logp (HCOOH),[1],"oily; logp (HCOOH): 3.37; 1H-NMR (CDCl3, 400 MHZ, δ in ppm): 1.35 (d, 3H, 3H"
CCC1Cc2ccc(C)cc2C1Nc1ncc2c(n1)CCCC2=O (racemic) [2.106],logp (HCOOH),[1],"oily; logp (HCOOH): 3.90; 1H-NMR (CDCl3, 400 MHZ, δ in ppm): 0.95 (t, 3H, CH3);"
Cc1ccc2c(c1)[C@H](Nc1ncc3c(n1)CC(c1ccccc1F)CC3=O)[C@@H](C)C2 (stereo partly shown) [2.50],logp (HCOOH),[1],"oily; logp (HCOOH): 4.86; 1H-NMR (CDCl3, 400 MHZ, δ in ppm): 1.25 (t, 3H, CH3);"
same,ZEAMX herbicidal activity in percent,[2]; 320 g/ha,0%
same,ZEAMX herbicidal activity in percent,[2]; 1280 g/ha,0%
same,AMARE herbicidal activity in percent,[3]; 1280 g/ha,100%
same,SETVI herbicidal activity in percent,[4]; 1280 g/ha,80%
same,STEME herbicidal activity in percent,[5]; 320 g/ha,100%
same,STEME herbicidal activity in percent,[5]; 1280 g/ha,100%
same,VERPE herbicidal activity in percent,[6]; 320 g/ha,100%
same,VERPE herbicidal activity in percent,[6]; 1280 g/ha,100%
same,VIOTR herbicidal activity in percent,[7]; 320 g/ha,90%
same,VIOTR herbicidal activity in percent,[7]; 1280 g/ha,90%
CC(C)c1ccc2c(c1)C(Nc1ncc3c(n1)CCCC3=O)CC2 (racemic) [2.107],logp (HCOOH),[1],"oily; logp (HCOOH): 3.83; 1H-NMR (CDCl3, 400 MHZ, δ in ppm): 1.20 (d, 6H,"
CC(=O)c1cnc(NC2c3ccccc3CCC2C)nc1 (racemic) [1.20],logp (HCOOH),[1],"oily; logp (HCOOH): 2.93; 1H-NMR (CDCl3, 400 MHZ, δ in ppm): 1.05 (d, 3H, CH3);"
same,TRZAS herbicidal activity in percent,[8]; 320 g/ha,20%
same,ZEAMX herbicidal activity in percent,[2]; 320 g/ha,0%
same,ZEAMX herbicidal activity in percent,[2]; 1280 g/ha,0%
same,AMARE herbicidal activity in percent,[3]; 320 g/ha,90%
same,AMARE herbicidal activity in percent,[3]; 1280 g/ha,100%
same,MATIN herbicidal activity in percent,[9]; 320 g/ha,90%
same,MATIN herbicidal activity in percent,[9]; 1280 g/ha,100%
same,POLCO herbicidal activity in percent,[10],100%
same,STEME herbicidal activity in percent,[5]; 320 g/ha,100%
same,STEME herbicidal activity in percent,[5]; 1280 g/ha,100%
same,VERPE herbicidal activity in percent,[6]; 320 g/ha,100%
same,VERPE herbicidal activity in percent,[6]; 1280 g/ha,100%
same,VIOTR herbicidal activity in percent,[7]; 320 g/ha,90%
same,VIOTR herbicidal activity in percent,[7]; 1280 g/ha,100%
CC(=O)c1cnc(NC2CCOc3c(C)cc(F)cc32)nc1C (racemic) [1.87],ORYSA herbicidal activity in percent,[11]; 80 g/ha,0%
same,TRZAS herbicidal activity in percent,[8]; 80 g/ha,0%
same,TRZAS herbicidal activity in percent,[8]; 320 g/ha,0%
same,ZEAMX herbicidal activity in percent,[2]; 80 g/ha,0%
same,ZEAMX herbicidal activity in percent,[2]; 320 g/ha,10%
same,AMARE herbicidal activity in percent,[3]; 80 g/ha,80%
same,AMARE herbicidal activity in percent,[3]; 320 g/ha,100%
same,ECHCG herbicidal activity in percent,[12],100%
same,MATIN herbicidal activity in percent,[9]; 80 g/ha,90%
same,MATIN herbicidal activity in percent,[9]; 320 g/ha,100%
same,SETVI herbicidal activity in percent,[4]; 320 g/ha,100%
same,STEME herbicidal activity in percent,[5]; 320 g/ha,100%
same,VERPE herbicidal activity in percent,[6]; 320 g/ha,100%
same,VIOTR herbicidal activity in percent,[7]; 80 g/ha,100%
same,VIOTR herbicidal activity in percent,[7]; 320 g/ha,100%
CC1CCc2ccccc2C1Nc1ncc2c(n1)CC(C)(C)CC2=O (racemic) [2.95],logp (HCOOH),[1],"oily; logp (HCOOH): 4.02; 1H-NMR (CDCl3, 400 MHZ, δ in ppm): 1.10 (s + d, 9H,"
same,ORYSA herbicidal activity in percent,[11]; 80 g/ha,0%
same,ORYSA herbicidal activity in percent,[11]; 320 g/ha,0%
same,TRZAS herbicidal activity in percent,[8]; 80 g/ha,0%
same,TRZAS herbicidal activity in percent,[8]; 320 g/ha,0%
same,ZEAMX herbicidal activity in percent,[2]; 80 g/ha,0%
same,ZEAMX herbicidal activity in percent,[2]; 320 g/ha,0%
same,AMARE herbicidal activity in percent,[3]; 80 g/ha,100%
same,AMARE herbicidal activity in percent,[3]; 320 g/ha,100%
same,ECHCG herbicidal activity in percent,[12],80%
same,MATIN herbicidal activity in percent,[9]; 80 g/ha,90%
same,MATIN herbicidal activity in percent,[9]; 320 g/ha,90%
same,STEME herbicidal activity in percent,[5]; 80 g/ha,100%
same,STEME herbicidal activity in percent,[5]; 320 g/ha,100%
same,VERPE herbicidal activity in percent,[6]; 80 g/ha,100%
same,VERPE herbicidal activity in percent,[6]; 320 g/ha,100%
same,VIOTR herbicidal activity in percent,[7]; 320 g/ha,100%
O=C1CCCc2nc(N[C@@H]3CCc4ccccc43)ncc21 [2.38],logp (HCOOH),[1],"oily; logp (HCOOH): 4.84; 1H-NMR (CDCl3, 400 MHZ, δ in ppm): 1.85 (m, 1H, 1H"
Cc1ccc2c(c1)[C@H](Nc1ncc3c(n1)CCCC3=O)CC2 [2.41],logp (HCOOH),[1],"oily; logp (HCOOH): 3.21; 1H-NMR (CDCl3, 400 MHZ, δ in ppm): 1.95 (m, 1H, 1H"
CC(=O)c1cnc(N[C@H]2c3cc(C)ccc3C[C@@H]2C)nc1 [1.10],chromatographic logP,[1]; HCOOH,2.99
O=C1CCCc2nc(NC3CCSc4ccc(F)cc43)ncc21 (racemic) [2.114],logp (HCOOH),[1],"oily; logp (HCOOH): 2.77; 1H-NMR (CDCl3, 400 MHZ, δ in ppm): 2.10 (m, 2H, 2H"
CC(=O)c1c(C)nc(NC2CCSc3c(F)cccc32)nc1C (racemic) [1.65],logp (HCOOH),[1],"solid; logp (HCOOH): 2.93; 1H-NMR (CDCl3, 400 MHZ, δ in ppm): 2.20 (m, 1H, 1H"
O=C1CCCc2nc(NC3CCOc4c(Cl)cccc43)ncc21 (racemic) [2.84],logp (HCOOH),[1],"oily; logp (HCOOH): 2.75; 1H-NMR (CDCl3, 400 MHZ, δ in ppm): 2.15 (m, 3H, 2H"
COc1ccc2c(c1)CCC2Nc1ncc(C(C)=O)c(C)n1 (racemic) [1.92],ORYSA herbicidal activity in percent,[11]; 320 g/ha,0%
same,TRZAS herbicidal activity in percent,[8]; 80 g/ha,0%
same,TRZAS herbicidal activity in percent,[8]; 320 g/ha,0%
same,ZEAMX herbicidal activity in percent,[2]; 80 g/ha,20%
same,ZEAMX herbicidal activity in percent,[2]; 320 g/ha,20%
same,AMARE herbicidal activity in percent,[3]; 80 g/ha,100%
same,AMARE herbicidal activity in percent,[3]; 320 g/ha,100%
same,MATIN herbicidal activity in percent,[9]; 320 g/ha,100%
same,VERPE herbicidal activity in percent,[6]; 80 g/ha,100%
same,VERPE herbicidal activity in percent,[6]; 320 g/ha,100%
same,VIOTR herbicidal activity in percent,[7]; 320 g/ha,100%
COc1ccc2c(c1)CCCC2Nc1ncc2c(n1)CCCC2=O (racemic) [2.109],logp (HCOOH),[1],"solid; m.p.: 151.3° C.; logp (HCOOH): 2.83; 1H-NMR (CDCl3, 400 MHZ, δ in ppm):"
CC(=O)c1cnc(N[C@@H]2CCc3ccccc32)nc1C [1.89],logp (HCOOH),[1],"solid; logp (HCOOH): 2.80; 1H-NMR (CDCl3, 400 MHZ, δ in ppm: 1.90 (m, 1H, 1H"
same,ORYSA herbicidal activity in percent,[11]; 320 g/ha,0%
same,TRZAS herbicidal activity in percent,[8]; 80 g/ha,0%
same,TRZAS herbicidal activity in percent,[8]; 320 g/ha,0%
same,ZEAMX herbicidal activity in percent,[2]; 80 g/ha,0%
same,ZEAMX herbicidal activity in percent,[2]; 320 g/ha,0%
same,AMARE herbicidal activity in percent,[3]; 320 g/ha,100%
same,MATIN herbicidal activity in percent,[9]; 80 g/ha,100%
same,MATIN herbicidal activity in percent,[9]; 320 g/ha,100%
same,STEME herbicidal activity in percent,[5]; 80 g/ha,80%
same,STEME herbicidal activity in percent,[5]; 320 g/ha,80%
same,VERPE herbicidal activity in percent,[6]; 80 g/ha,80%
same,VERPE herbicidal activity in percent,[6]; 320 g/ha,100%
same,VIOTR herbicidal activity in percent,[7]; 80 g/ha,90%
same,VIOTR herbicidal activity in percent,[7]; 320 g/ha,100%
CC(=O)c1cnc(N[C@@H]2CCc3c(C)cc(C)cc32)nc1 [1.95],logp (HCOOH),[1],"solid; m.p.: 153.0° C.; logp (HCOOH): 3.45; 1H-NMR (CDCl3, 400 MHZ, δ in ppm):"
CC1Cc2cc(Cl)ccc2C1Nc1ncc2c(n1)CCCC2=O (racemic) [2.108],logp (HCOOH),[1],"oily; logp (HCOOH): 3.58; 1H-NMR (CDCl3, 400 MHZ, δ in ppm): 1.25 (d, 3H, CH3);"
